In patent US8772504B2, “Substituted benzoxazole, benzimidazole, oxazolopyridine and imidazopyridine derivatives as gamma secretase modulators” (Janssen Pharmaceuticals, Inc., priority 2009, dated 2014):

Columns and labels:
Aβ42 [1] = test: Screening for γ-secretase-modulating activity, Method 1: Aβ42 sandwich ELISA on SKNBE2 cell media; type: cell-based; conditions: SKNBE2 cells carrying APP 695 wild type
How it was run: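 SKNBE2 cells expressing wild-type APP695 were treated with compound for 18 h in Ultraculture/1% glutamine. Secreted Aβ42 was quantified by sandwich ELISA (C-terminal capture, biotinylated 3D6, TMB, 450 nm), with WST-1 used as a toxicity check. IC50 was derived from 4-parameter fits of % inhibition or % of untreated control.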

Aβtotal [2] = test: In vivo efficacy Method 1: brain soluble Aβtotal by ELISA; parameters: species or system mouse; conditions: Table 4a, single oral dose, overnight fasted animals, sacrificed after 4 h, soluble fraction of brain homogenates
From the text: (§1) To determine whether acute administration of an Aβ42 lowering agent would reduce Aβ42 levels in vivo, non-transgenic rodents, e.g. mice or rats were used. Alternatively, two to three month old Tg2576 mice expressing APP695 containing the “Swedish” variant can be used or a transgenic mouse model developed by Dr. Fred Van Leuven (K.U. Leuven, Belgium) and co-workers, with neuron-specific expression of a clinical mutant of the human amyloid precursor protein [V717I] […] Young transgenic mice have high levels of Aβ in the brain but no detectable Aβ deposition. At approximately 6-8 months of age, the transgenic mice start to display spontaneous, progressive accumulation of β-amyloid (Aβ) in the brain, eventually resulting in amyloid plaques within the subiculum, hippocampus and cortex. Animals treated with the Aβ42 lowering agent were examined and compared to those untreated or treated with vehicle and brain levels of soluble Aβ42 and total Aβ would be quantitated by standard techniques, for example, using ELISA.
(§2) A typical protocol for measuring Aβ42 lowering in vivo is shown but it is only one of many variations that could be used to optimize the levels of detectable Aβ. For example, Aβ42 lowering compounds were formulated in 20% of Captisol® (a sulfobutyl ether of β-cyclodextrin) in water or 20% hydroxypropyl β cyclodextrin. The Aβ42 lowering agents were administered as a single oral dose or by any acceptable route of administration to overnight fasted animals. After 4 h, the animals were sacrificed and Aβ42 levels were analysed.
(§3) Blood was collected by decapitation and exsanguinations in EDTA-treated collection tubes. Blood was centrifuged at 1900 g for 10 minutes (min) at 4° C. and the plasma recovered and flash frozen for later analysis. The brain was removed from the cranium and hindbrain. The cerebellum was removed and the left and right hemisphere were separated. The left hemisphere was stored at −18° C. for quantitative analysis of test compound levels. The right hemisphere was rinsed with phosphate-buffered saline (PBS) buffer and immediately frozen on dry ice and stored at −80° C. until homogenization for biochemical assays.
(§4) All samples were sonicated for 30 seconds on ice at 20% power output (pulse mode). Homogenates were centrifuged at 221.300×g for 50 min. The resulting high speed supernatants were then transferred to fresh tubes and were optionally further purified before the next step. A portion of the supernatant was neutralized with 10% 0.5 M Tris-HCl and this was used to quantify Aβtotal.
The obtained supernatants were purified with Water Oasis HLB reverse phase columns (Waters Corp., Milford, Mass.) to remove non-specific immunoreactive material from the brain lysates prior subsequent Aβ detection. Using a vacuum manifold, all solutions were passed through the columns at a rate of approximately 1 ml per min, so the vacuum pressure was adjusted accordingly throughout the procedure. Columns were preconditioned with 1 ml of 100% MeOH, before equilibration with 1 ml of H2O, Non-neutralized brain lysates were loaded onto the columns. The loaded samples were then washed twice with the first wash performed with 1 ml of 5% MeOH, and the second wash with 1 ml of 30% MeOH. Finally, the Aβ was eluted from the columns and into 100×30 mm glass tubes, with a solution of 90% MeOH with 2% NH4OH. The eluate was then transferred into 1.5 ml tubes and concentrated in a speed-vac concentrator on high heat for about 1.5-2 h at 70° C. The concentrated Aβ was then resuspended in UltraCULTURE General Purpose Serum-Free Medium (Cambrex Corp., Walkersville, Md.) plus Protease Inhibitors added. […]

Aβ42 [3] = test: In vivo efficacy Method 1: brain soluble Aβ42 by ELISA; parameters: species or system mouse; conditions: Table 4a, single oral dose, overnight fasted animals, sacrificed after 4 h, soluble fraction of brain homogenates
From the text: as §1, §2, §3, §4
The obtained supernatants were purified with Water Oasis HLB reverse phase columns (Waters Corp., Milford, Mass.) to remove non-specific immunoreactive material from the brain lysates prior subsequent Aβ detection. Using a vacuum manifold, all solutions were passed through the columns at a rate of approximately 1 ml per min, so the vacuum pressure was adjusted accordingly throughout the procedure. Columns were preconditioned with 1 ml of 100% MeOH, before equilibration with 1 ml of H2O, Non-neutralized brain lysates were loaded onto the columns. The loaded samples were then washed twice with the first wash performed with 1 ml of 5% MeOH, and the second wash with 1 ml of 30% MeOH. Finally, the Aβ was eluted from the columns and into 100×30 mm glass tubes, with a solution of 90% MeOH with 2% NH4OH. The eluate was then transferred into 1.5 ml tubes and concentrated in a speed-vac concentrator on high heat for about 1.5-2 h at 70° C. The concentrated Aβ was then resuspended in UltraCULTURE General Purpose Serum-Free Medium (Cambrex Corp., Walkersville, Md.) plus Protease Inhibitors added.
To quantify the amount of Aβ42 in the soluble fraction of the brain homogenates, commercially available Enzyme-Linked-Immunosorbent-Assay (ELISA) kits were used (e.g. Innotest® β-Amyloid(1-42), Innogenetics N.V., Ghent, Belgium). The Aβ42 ELISA was performed using the plate provided with the kit only.

Aβtotal [4] = test: Screening for γ-secretase-modulating activity, Method 1: Aβtotal sandwich ELISA on SKNBE2 cell media; type: cell-based; conditions: SKNBE2 cells carrying APP 695 wild type
How it was run: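 SKNBE2 cells expressing wild-type APP 695 were treated with compound for 18 hours. Aβtotal in the medium was measured by sandwich ELISA (6E10 capture, biotinylated 4G8 detection, fluorogenic peroxidase read-out). IC50 came from a 4-parameter fit of % inhibition with top/bottom fixed at 100/0 and Hill slope 1, or as averaged IC50 from % of untreated control.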

Aβtotal [5] = test: Screening for γ-secretase-modulating activity, Method 2: Aβtotal Alphalisa on SKNBE2 cell supernatant; type: cell-based; conditions: Method 2, Table 3c, SKNBE2 cells carrying APP 695 wild type, overnight incubation
How it was run: (§5)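 SKNBE2 cells expressing wild-type APP695, plated at 10^4 cells/well with compound at several concentrations and incubated overnight at 37° C. Aβ42 (C-terminal capture, N-terminal biotinylated detection) and Aβtotal (N-terminal/4G8 pair) measured in supernatant by AlphaLISA. IC50 from 4-parameter fit of percent of compound-free control.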

Aβ42 [6] = test: Screening for γ-secretase-modulating activity, Method 2: Aβ42 Alphalisa on SKNBE2 cell supernatant; type: cell-based; conditions: Method 2, Table 3c, SKNBE2 cells carrying APP 695 wild type, overnight incubation
How it was run: as §5

Aβ42 [7] = test: In vivo efficacy Method 2: brain soluble Aβ42 by ELISA; parameters: species or system mouse; conditions: Table 4b, single oral dose, overnight fasted non-transgenic animals, sacrificed after 4 h, soluble fraction of brain homogenates
From the text: (§6) To determine whether acute administration of an Aβ42 lowering agent would reduce Aβ42 levels in vivo, non-transgenic rodents, e.g. mice or rats were used. Animals treated with the Aβ42 lowering agent were examined and compared to those untreated or treated with vehicle and brain levels of soluble Aβ42 and total Aβ were quantitated by standard techniques, for example, using ELISA. Treatment periods varied from hours (h) to days and were adjusted based on the results of the Aβ42 lowering once a time course of onset of effect could be established.
as §2, §3
(§7) Mouse brains from non-transgenic animals were resuspended in 8 volumes of 0.4% DEA (diethylamine)/50 mM NaCl containing protease inhibitors (Roche-11873580001 or 04693159001) per gram of tissue, e.g. for 0.158 g brain, add 1.264 ml of 0.4% DEA. All samples were homogenized in the FastPrep-24 system (MP Biomedicals) using lysing matrix D (MPBio #6913-100) at 6 m/s for 20 seconds. Homogenates were centrifuged at 221.300×g for 50 min. The resulting high speed supernatants were then transferred to fresh eppendorf tubes. Nine parts of supernatant were neutralized with 1 part 0.5 M Tris-HCl pH 6.8 and used to quantify Aβtotal and Aβ42.
(§8) To quantify the amount of Aβtotal and Aβ42 in the soluble fraction of the brain homogenates, Enzyme-Linked-Immunosorbent-Assays were used . Briefly, the standards (a dilution of synthetic Aβ1-40 and Aβ1-42, Bachem) were prepared in 1.5 ml Eppendorf tube in Ultraculture, with final concentrations ranging from 10000 to 0.3 pg/ml. The samples and standards were co-incubated with HRPO-labelled N-terminal antibody for Aβ42 detection and with the biotinylated mid-domain antibody 4G8 for Aβtotal detection. 50 μl of conjugate/sample or conjugate/standards mixtures were then added to the antibody-coated plate (the capture antibodies selectively recognize the C-terminal end of Aβ42, antibody JRF/cAβ42/26, for Aβ42 detection and the N-terminus of Aβ, antibody JRF/rAβ/2, for Aβtotal detection). The plate was allowed to incubate overnight at 4° C. in order to allow formation of the antibody-amyloid complex. Following this incubation and subsequent wash steps the ELISA for Aβ42 quantification was finished by addition of Quanta Blu fluorogenic peroxidase substrate according to the manufacturer's instructions (Pierce Corp., Rockford, Ill.). A reading was performed after 10 to 15 min (excitation 320/emission 420).
In this model at least 20% Aβ42 lowering compared to untreated animals would be advantageous.

Aβtotal [8] = test: In vivo efficacy Method 2: brain soluble Aβtotal by ELISA; parameters: species or system mouse; conditions: Table 4b, single oral dose, overnight fasted non-transgenic animals, sacrificed after 4 h, soluble fraction of brain homogenates
From the text: as §6, §2, §3, §7, §8
For Aβtotal detection, a Streptavidine-Peroxidase-Conjugate was added, followed 60 min later by an additional wash step and addition of Quanta Blu fluorogenic peroxidase substrate according to the manufacturer's instructions (Pierce Corp., Rockford, Ill.). A reading was performed after 10 to 15 min (excitation 320 nm/emission 420 nm).

[9] = Table 3a, 18 hours, XLfit, top/bottom fixed to 100 and 0, hill slope 1
[10] = Table 3b, non-linear regression of % of control, averaged IC50 values

Structure (SMILES)	IC50 (Aβ42 [1]; [9])	IC50 (Aβ42 [1]; [10])	IC50 (Aβtotal [4]; [9])	IC50 (Aβtotal [4]; [10])	IC50 (Aβtotal [5]; Homo sapiens)	IC50 (Aβ42 [6]; Homo sapiens)	IC50 (Aβtotal [5])	IC50 (Aβ42 [6])	Aβtotal (% Ctrl) _Mean (Aβtotal [2])	Aβ42 (% Ctrl) _Mean (Aβ42 [3])	Aβ42 (% Ctrl) _Mean (Aβ42 [7])	Aβtotal (% Ctrl) _Mean (Aβtotal [8])
Cc1ncn(-c2ccc(Nc3cccc4c3nc(-c3ccc(F)cc3)n4C(C)C)cc2F)n1.Cl.Cl [Compound 74]	65 nM	59 nM	> 3000 nM	> 3000 nM	–	–	–	–	99 % Ctrl	86 % Ctrl	–	–
COc1cc(Nc2cccc3oc(-c4ccc(F)cc4)nc23)ccc1-n1cnc(C)c1 [Compound 80]	1850 nM	1740 nM	> 30000 nM	> 10000 nM	–	–	–	–	102 % Ctrl	97 % Ctrl	–	–
COc1cc(Nc2cccc3oc(Cc4ccc(F)cc4)nc23)ccc1-n1cnc(C)c1 [Compound 82]	147 nM	141 nM	> 3000 nM	> 3000 nM	–	–	–	–	96 % Ctrl	85 % Ctrl	–	–
Cc1cn(-c2ccc(Nc3cccc4c3nc(-c3ccc(F)cc3)n4C)nn2)cn1 [Compound 95]	331 nM	331 nM	> 10000 nM	> 10000 nM	–	–	–	–	95 % Ctrl	85 % Ctrl	–	–
Cc1ncnn1-c1ccc(Nc2nccc3c2nc(-c2ccc(F)cc2)n3C)cc1F [Compound 97]	435 nM	398 nM	> 3000 nM	> 10000 nM	–	–	–	–	96 % Ctrl	96 % Ctrl	–	–
Cc1cn(-c2ccc(Nc3nccc4c3nc(-c3ccc(F)cc3F)n4C)cc2F)cn1 [Compound 104]	50 nM	44 nM	> 3000 nM	> 3000 nM	–	–	–	–	110 % Ctrl	65 % Ctrl	–	–
COc1nc(Nc2cc(F)cc3c2nc(-c2ccc(F)cc2)n3C(C)C)ccc1-n1cnc(C)c1 [Compound 106]	–	–	–	–	6.17 µM	4 nM	–	–	104 % Ctrl	87 % Ctrl	–	–
COc1cc(-c2nc3c(Nc4ccc(-n5cnc(C)c5)c(OC)n4)cccc3n2C(C)C)ccc1Cl [Compound 131]	–	–	–	–	–	–	8.13 µM	5 nM	84 % Ctrl	51 % Ctrl	–	–
COc1cc(-c2nc3c(Nc4ccc(-n5cnc(C)c5)c(F)c4)nc(C)cc3n2C)ccc1Cl [Compound 136]	–	–	–	–	–	–	> 10 µM	9 nM	–	–	77 % Ctrl	104 % Ctrl

The remaining molecules from weak to strong by IC50 (Aβ42 [1]; [9]), led by results:

IC50 (Aβ42 [1]; [9])	IC50 (Aβ42 [1]; [10])	IC50 (Aβtotal [4]; [9])	IC50 (Aβtotal [4]; [10])	IC50 (Aβtotal [5]; Homo sapiens)	IC50 (Aβ42 [6]; Homo sapiens)	IC50 (Aβtotal [5])	IC50 (Aβ42 [6])	Structure (SMILES)	Aβtotal (% Ctrl) _Mean (Aβtotal [2])	Aβ42 (% Ctrl) _Mean (Aβ42 [3])	Aβ42 (% Ctrl) _Mean (Aβ42 [7])	Aβtotal (% Ctrl) _Mean (Aβtotal [8])
50 nM	37 nM	> 3000 nM	> 3000 nM	–	–	–	–	Cc1ncn(-c2ccc(Nc3cccc4c3nc(-c3ccc(F)cc3)n4C)cn2)n1 [Compound 70]	99 % Ctrl	64 % Ctrl	–	–
36 nM	33 nM	> 3000 nM	> 3000 nM	–	–	–	–	COc1cc(Nc2cccc3c2nc(-c2ccc(F)cc2)n3C)ccc1-n1ncnc1C [Compound 91]	94 % Ctrl	68 % Ctrl	–	–
31 nM	24 nM	> 1000 nM	> 3000 nM	–	–	–	–	COc1cc(Nc2cccc3c2nc(-c2cccc(Cl)c2)n3C)ccc1-n1ncnc1C [Compound 96]	88 % Ctrl	62 % Ctrl	–	–
28 nM	28 nM	> 1000 nM	> 3000 nM	–	–	–	–	COc1cc(Nc2cccc3c2nc(-c2ccc(F)cc2)n3C)ccc1-n1cnc(Br)c1 [Compound 71]	102 % Ctrl	88 % Ctrl	–	–
10 nM	10 nM	> 1000 nM	> 3000 nM	–	–	–	–	COc1cc(-c2nc3c(Nc4ccc(-n5cnc(C)n5)c(OC)c4)cccc3n2C)ccc1Cl [Compound 85]	93 % Ctrl	71 % Ctrl	–	–
